Laboratory results from patent US11000033B2, “Ketone or oxime compound, and herbicide” (NISSAN CHEMICAL CORPORATION, priority 2014, dated 2021).

How the values were obtained:
Type in all cases: in vivo
[1] = test system: Echinochloa oryzacola Vasing.; assay: Test Example 1: herbicidal activity, application before weed generation in submerged conditions (symbol A); conditions: application herbicide amount 320 g/ha
Procedure, shortened: (§1)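 Steps: alluvial soil flooded to 4 cm; weed seeds sown together; rice seedlings (2.5 leaf) transplanted; diluted emulsion applied to water surface the same day as sowing; plants grown at 25–30 °C in greenhouse; herbicidal effect rated on a 0–5 scale at 3 weeks.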

Scirpus juncoides = assay: Test Example 1: herbicidal activity, application before weed generation in submerged conditions (symbol B); conditions: application herbicide amount 320 g/ha
Procedure, shortened: as §1

[2] = test system: Echinochloa crus-galli var. crus-galli; assay: Test Example 3: herbicidal effect by foliage application, Wagner pot (symbol H); conditions: application herbicide amount 320 g/ha
Procedure, shortened: (§2)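 Herbicidal activity was rated three weeks after a foliar spray of diluted emulsion concentrate, applied at a predetermined dose to plants grown for 14 days from seed in waterlogged alluvial soil within a 25–30 °C greenhouse.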

Setaria viridis = assay: Test Example 4: herbicidal effect by soil treatment (symbol G); conditions: application herbicide amount 320 g/ha
Procedure, shortened: (§3)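 Seeds were sown in sterilized diluvial soil, covered with about 1.5 cm of soil, and the soil surface was sprayed with a water-diluted emulsion of the compound at a predetermined rate. Plants grew in a greenhouse at 25° C. to 30° C.; effects were scored visually 3 weeks after application.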

Alopecurus myosuroides [3] = assay: Test Example 4: herbicidal effect by soil treatment (symbol J); conditions: application herbicide amount 320 g/ha
Procedure, shortened: as §3

Apera spica-venti [4] = assay: Test Example 4: herbicidal effect by soil treatment (symbol L); conditions: application herbicide amount 320 g/ha
Procedure, shortened: as §3

Galium spurium [5] = assay: Test Example 4: herbicidal effect by soil treatment (symbol Q); conditions: application herbicide amount 320 g/ha
Procedure, shortened: as §3

wheat = assay: Test Example 4: effect on crop by soil treatment (symbol e); conditions: application herbicide amount 320 g/ha
Procedure, shortened: (§4)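 Plants grew in a 25° C. to 30° C. greenhouse after spot-sowing of seeds, including beet, rapeseed, wheat and rice, into sterilized diluvial soil under roughly 1.5 cm of cover soil.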

rapeseed [6] = assay: Test Example 4: effect on crop by soil treatment (symbol g); conditions: application herbicide amount 320 g/ha
Procedure, shortened: as §4

Digitaria ciliaris = assay: Test Example 5: herbicidal effect by foliage application, plastic box (symbol F); conditions: 320 g/ha, 3 weeks after application
Procedure, shortened: (§5)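 Post-emergence spray; diluvial soil (sterilized), ~1.5 cm seed cover; greenhouse 25–30° C; 14-day-old plants; water-diluted emulsion at predetermined dose; visual score at 3 wk post-treatment.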

Alopecurus myosuroides [7] = assay: Test Example 5: herbicidal effect by foliage application, plastic box (symbol J); conditions: 320 g/ha, 3 weeks after application
Procedure, shortened: as §5

Apera spica-venti [8] = assay: Test Example 5: herbicidal effect by foliage application, plastic box (symbol L); conditions: 320 g/ha, 3 weeks after application
Procedure, shortened: as §5

Abutilon theophrasti = assay: Test Example 5: herbicidal effect by foliage application, plastic box (symbol M); conditions: 320 g/ha, 3 weeks after application
Procedure, shortened: as §5

Amaranthus retroflexus = assay: Test Example 5: herbicidal effect by foliage application, plastic box (symbol N); conditions: 320 g/ha, 3 weeks after application
Procedure, shortened: as §5

Stellaria media = assay: Test Example 5: herbicidal effect by foliage application, plastic box (symbol P); conditions: 320 g/ha, 3 weeks after application
Procedure, shortened: as §5

Galium spurium [9] = assay: Test Example 5: herbicidal effect by foliage application, plastic box (symbol Q); conditions: 320 g/ha, 3 weeks after application
Procedure, shortened: as §5

beet = assay: Test Example 5: effect on crop by foliage application, plastic box (symbol f); conditions: 320 g/ha, 3 weeks after application
Procedure, shortened: (§6)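 Soil: sterilized diluvial. Container: plastic box, 21 × 13 cm, 7 cm deep. Sowing: spot-like, ~1.5 cm cover. Growth: greenhouse, 25° C. to 30° C.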

rapeseed [10] = assay: Test Example 5: effect on crop by foliage application, plastic box (symbol g); conditions: 320 g/ha, 3 weeks after application
Procedure, shortened: as §6

Cyperus difformis = assay: Test Example 3: herbicidal effect by foliage application, Wagner pot (symbol E); conditions: application herbicide amount 320 g/ha
Procedure, shortened: as §2

Structure (SMILES)	Herbicidal effect grade, A: Echinochloa oryzacola Vasing. [1]	Herbicidal effect grade, B: Scirpus juncoides (Scirpus juncoides)	herbicidal effect on H (Echinochloa crus-galli var. crus-galli), grade 0-5 [2]	Herbicidal effect grade, G: Setaria viridis (Setaria viridis)	Herbicidal effect grade, J: Alopecurus myosuroides (Alopecurus myosuroides [3])	Herbicidal effect grade, Q: Galium spurium (Galium spurium [5])	Effect on crop grade, e: wheat (wheat)	Effect on crop grade, g: rapeseed (rapeseed [6])	F: Digitaria ciliaris, herbicidal effect (criteria of Test Example 1) (Digitaria ciliaris)	J: Alopecurus myosuroides, herbicidal effect (criteria of Test Example 1) (Alopecurus myosuroides [7])	L: Apera spica-venti, herbicidal effect (criteria of Test Example 1) (Apera spica-venti [8])	M: Abutilon theophrasti, herbicidal effect (criteria of Test Example 1) (Abutilon theophrasti)	N: Amaranthus retroflexus, herbicidal effect (criteria of Test Example 1) (Amaranthus retroflexus)	P: Stellaria media, herbicidal effect (criteria of Test Example 1) (Stellaria media)	Q: Galium spurium, herbicidal effect (criteria of Test Example 1) (Galium spurium [9])	f: beet, effect on crop (criteria of Test Example 1) (beet)	g: rapeseed, effect on crop (criteria of Test Example 1) (rapeseed [10])	herbicidal effect on E, grade 0-5 (Cyperus difformis)	other results
CON=C(C)CC1CC(O)=C(c2c(C)cc(-c3cc(F)c(F)c(F)c3)cc2C)C1=O (stereo not drawn) [6-104]	5 (Herbicidal ratio of 90% or more (almost completely withered))	5 (Herbicidal ratio of 90% or more (almost completely withered))	5 (Herbicidal ratio of 90% or more (almost completely withered))	5 (Herbicidal ratio of 90% or more (almost completely withered))	5 (Herbicidal ratio of 90% or more (almost completely withered))	4 (Herbicidal ratio of 70% or higher and lower than 90%)	5 (Herbicidal ratio of 90% or more (almost completely withered))	4 (Herbicidal ratio of 70% or higher and lower than 90%)	5 (Herbicidal ratio of 90% or more (almost completely withered))	5 (Herbicidal ratio of 90% or more (almost completely withered))	5 (Herbicidal ratio of 90% or more (almost completely withered))	5 (Herbicidal ratio of 90% or more (almost completely withered))	5 (Herbicidal ratio of 90% or more (almost completely withered))	4 (Herbicidal ratio of 70% or higher and lower than 90%)	4 (Herbicidal ratio of 70% or higher and lower than 90%)	4 (Herbicidal ratio of 70% or higher and lower than 90%)	4 (Herbicidal ratio of 70% or higher and lower than 90%)	–	Herbicidal effect grade, L: Apera spica-venti (Apera spica-venti [4]): 5 (Herbicidal ratio of 90% or more (almost completely withered))
CON=C(C)CC1CC(OC(=O)COc2ccccc2)=C(c2c(C)cc(C)cc2OC)C1=O (stereo not drawn) [6-091]	5 (Herbicidal ratio of 90% or more (almost completely withered))	5 (Herbicidal ratio of 90% or more (almost completely withered))	5 (Herbicidal ratio of 90% or more (almost completely withered))	5 (Herbicidal ratio of 90% or more (almost completely withered))	5 (Herbicidal ratio of 90% or more (almost completely withered))	0 (Herbicidal ratio of 5% or lower (almost no effect))	5 (Herbicidal ratio of 90% or more (almost completely withered))	4 (Herbicidal ratio of 70% or higher and lower than 90%)	5 (Herbicidal ratio of 90% or more (almost completely withered))	5 (Herbicidal ratio of 90% or more (almost completely withered))	5 (Herbicidal ratio of 90% or more (almost completely withered))	4 (Herbicidal ratio of 70% or higher and lower than 90%)	2 (Herbicidal ratio of 20% or higher and lower than 40%)	4 (Herbicidal ratio of 70% or higher and lower than 90%)	3 (Herbicidal ratio of 40% or higher and lower than 70%)	3 (Herbicidal ratio of 40% or higher and lower than 70%)	5 (Herbicidal ratio of 90% or more (almost completely withered))	5 (Herbicidal ratio of 90% or more (almost completely withered))	–
CON=C(C)CC1CC(O)=C(c2c(C)cc(-c3ccc(Cl)cc3F)cc2C)C1=O (stereo not drawn) [6-084]	5 (Herbicidal ratio of 90% or more (almost completely withered))	3 (Herbicidal ratio of 40% or higher and lower than 70%)	5 (Herbicidal ratio of 90% or more (almost completely withered))	–	–	–	–	–	5 (Herbicidal ratio of 90% or more (almost completely withered))	5 (Herbicidal ratio of 90% or more (almost completely withered))	5 (Herbicidal ratio of 90% or more (almost completely withered))	3 (Herbicidal ratio of 40% or higher and lower than 70%)	3 (Herbicidal ratio of 40% or higher and lower than 70%)	3 (Herbicidal ratio of 40% or higher and lower than 70%)	3 (Herbicidal ratio of 40% or higher and lower than 70%)	0 (Herbicidal ratio of 5% or lower (almost no effect))	4 (Herbicidal ratio of 70% or higher and lower than 90%)	5 (Herbicidal ratio of 90% or more (almost completely withered))	G: Setaria viridis, herbicidal effect grade (Setaria viridis): 5 (Herbicidal ratio of 90% or more (almost completely withered)); J: Alopecurus myosuroides, herbicidal effect grade (Alopecurus myosuroides [3]): 5 (Herbicidal ratio of 90% or more (almost completely withered)); Q: Galium spurium, herbicidal effect grade (Galium spurium [5]): 3 (Herbicidal ratio of 40% or higher and lower than 70%); e: wheat, effect on crop grade (wheat): 2 (Herbicidal ratio of 20% or higher and lower than 40%); g: rapeseed, effect on crop grade (rapeseed [6]): 1 (Herbicidal ratio of 5% or higher and lower than 20%)
